Laboratory results reported in the supplement of paper PMC10307832.

Tests used:
Test in all cases: relative viability (nuclei count vs DMSO), 5 days (fraction); higher = more cells survive
XMD8-85 + Luminespib = compound: CN1CCN(CC1)C2=CC(=C(C=C2)NC3=NC=C4C(=N3)N(C5=CC=CC=C5C(=O)N4C)C)OC [XMD8-85] + CCNC(=O)c1noc(-c2cc(C(C)C)c(O)cc2O)c1-c1ccc(CN2CCOCC2)cc1 [Luminespib] (partner 0.01 µM)
Outline: (§1)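 Dosing by pin tool came one day after lung cancer cell lines were seeded in 1536-well plates, using either one drug or a fixed anchor-drug dose plus five library-drug doses (not always all listed) in √10 steps. After 5 days, nuclei were counted on 4× images. Relative viability is treated-well nuclei count divided by vehicle-well nuclei count, and values are medians of duplicate plates.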

4EGI-1 + Decitabine = compound: O=C(O)C(Cc1ccccc1[N+](=O)[O-])=NNc1nc(-c2ccc(Cl)c(Cl)c2)cs1 (mixture of isomers) [4EGI-1] + Nc1ncn([C@H]2C[C@H](O)[C@@H](CO)O2)c(=O)n1 [Decitabine] (partner 2 µM)
Outline: as §1

4EGI-1 + Trametinib = compound: O=C(O)C(Cc1ccccc1[N+](=O)[O-])=NNc1nc(-c2ccc(Cl)c(Cl)c2)cs1 (mixture of isomers) [4EGI-1] + CC(=O)Nc1cccc(-n2c(=O)n(C3CC3)c(=O)c3c(Nc4ccc(I)cc4F)n(C)c(=O)c(C)c32)c1 [Trametinib] (partner 0.02 µM)
Outline: as §1

4EGI-1 + Linsitinib = compound: O=C(O)C(Cc1ccccc1[N+](=O)[O-])=NNc1nc(-c2ccc(Cl)c(Cl)c2)cs1 (mixture of isomers) [4EGI-1] + C[C@]1(O)C[C@@H](c2nc(-c3ccc4ccc(-c5ccccc5)nc4c3)c3c(N)nccn32)C1 [Linsitinib] (partner 1 µM)
Outline: as §1

| Cell Line | relative viability (XMD8-85 + Luminespib; first compound 0.08 µM) | relative viability (XMD8-85 + Luminespib; first compound 0.253 µM) | relative viability (XMD8-85 + Luminespib; first compound 0.8 µM) | relative viability (XMD8-85 + Luminespib; first compound 2.53 µM) | relative viability (XMD8-85 + Luminespib; first compound 8 µM) | relative viability (4EGI-1 + Decitabine; first compound 0.5 µM) | relative viability (4EGI-1 + Decitabine; first compound 1.581 µM) | relative viability (4EGI-1 + Decitabine; first compound 5 µM) | relative viability (4EGI-1 + Decitabine; first compound 15.81 µM) | relative viability (4EGI-1 + Decitabine; first compound 50 µM) | relative viability (4EGI-1 + Trametinib; first compound 0.5 µM) | relative viability (4EGI-1 + Trametinib; first compound 1.581 µM) | relative viability (4EGI-1 + Trametinib; first compound 5 µM) | relative viability (4EGI-1 + Trametinib; first compound 15.81 µM) | relative viability (4EGI-1 + Trametinib; first compound 50 µM) | relative viability (4EGI-1 + Linsitinib; first compound 0.5 µM) | relative viability (4EGI-1 + Linsitinib; first compound 1.581 µM) | relative viability (4EGI-1 + Linsitinib; first compound 5 µM) | relative viability (4EGI-1 + Linsitinib; first compound 15.81 µM) | relative viability (4EGI-1 + Linsitinib; first compound 50 µM) |
| --- | --- | --- | --- | --- | --- | --- | --- | --- | --- | --- | --- | --- | --- | --- | --- | --- | --- | --- | --- | --- |
| NCI-H1355 | 0.528 | 0.747 | 0.697 | 0.642 | 0.6 | 0.364 | 0.36 | 0.358 | 0.328 | 0.336 | 0.47 | 0.428 | 0.372 | 0.319 | 0.33 | 0.927 | 0.831 | 0.714 | 0.611 | 0.614 |
| LK-2 | – | 0.184 | 0.192 | 0.155 | 0.162 | 0.273 | – | 0.318 | 0.315 | 0.166 | 0.841 | 0.529 | 0.944 | 0.75 | 0.609 | 0.587 | 0.357 | 0.777 | 0.604 | 0.549 |
| NCI-H2023 | 0.406 | 0.751 | – | 0.649 | 0.407 | 0.242 | 0.173 | 0.221 | 0.128 | 0.0871 | 0.865 | – | 0.593 | 0.214 | 0.0814 | 0.75 | – | 0.562 | 0.388 | 0.135 |
| PC-14 | 0.14 | 0.167 | 0.179 | 0.154 | 0.134 | 0.227 | – | 0.222 | 0.13 | 0.0662 | 1.01 | – | 0.786 | 0.561 | 0.0572 | 1.01 | 0.741 | 0.983 | – | 0.94 |
| LXF-289 | 0.611 | 0.57 | 0.584 | – | 0.4 | 0.436 | 0.346 | 0.391 | 0.359 | 0.287 | 0.716 | 0.669 | 0.61 | 0.622 | 0.583 | 0.984 | 0.96 | 0.921 | 0.935 | 0.673 |
| NCI-H2009 | 1.01 | 1.01 | 1.05 | 0.898 | 0.564 | 0.419 | 0.359 | 0.389 | 0.292 | 0.317 | 0.339 | 0.28 | 0.306 | 0.24 | 0.139 | 1.33 | 1.23 | 1.29 | 1.07 | 0.885 |
| SK-LU-1 | 0.193 | 0.207 | 0.207 | 0.191 | 0.165 | 0.682 | 0.65 | 0.653 | 0.48 | 0.367 | 0.5 | 0.527 | 0.538 | 0.474 | 0.326 | 1.31 | 1.35 | 1.46 | 1.14 | 0.283 |
| NCI-H23 | 0.207 | 0.234 | 0.214 | 0.199 | 0.193 | 0.331 | – | 0.337 | 0.45 | 0.2 | 0.351 | – | 0.422 | 0.369 | 0.187 | 0.718 | – | 0.704 | 0.629 | 0.496 |
| NCI-H2405 | 0.63 | 0.727 | 0.625 | 0.704 | 0.643 | 0.791 | – | 0.755 | 0.734 | 0.478 | 0.856 | – | 0.703 | 0.771 | 0.482 | 1.14 | 0.889 | 1.02 | 1.02 | 0.536 |
| RERF-LC-KJ | 1.32 | 1.14 | 1.3 | 1.1 | 0.779 | 0.828 | – | 0.609 | 0.444 | 0.285 | 0.887 | 0.679 | 0.851 | 0.726 | 0.516 | 0.966 | 0.706 | 0.868 | 0.815 | 0.843 |
| HCC-827 | 0.834 | 0.486 | 0.756 | 0.797 | 0.614 | 0.263 | 0.31 | 0.344 | – | 0.219 | 0.575 | 0.458 | 0.611 | – | 0.505 | 0.969 | 0.866 | 0.905 | – | 0.878 |
| NCI-H358 | 0.303 | 0.172 | 0.376 | 0.339 | 0.239 | 0.218 | 0.203 | 0.189 | 0.138 | 0.115 | 0.154 | 0.132 | 0.151 | 0.114 | 0.123 | 0.882 | 0.689 | 0.889 | 0.69 | 0.208 |
| NCI-H650 | 0.892 | 0.862 | 0.773 | 0.82 | 0.639 | 0.352 | – | 0.34 | 0.332 | 0.322 | 1.07 | – | 1.02 | 0.984 | 0.833 | 0.996 | – | 1.24 | 0.915 | 0.732 |
| SW 1573 | 0.276 | 0.189 | 0.183 | 0.172 | 0.175 | 0.623 | 0.427 | 0.495 | 0.254 | 0.112 | 0.59 | 0.476 | 0.526 | 0.514 | 0.251 | 1 | 0.669 | 0.917 | 0.741 | 0.961 |
| NCI-H661 | 1.06 | 0.952 | 1.01 | 1.04 | 0.806 | 0.582 | 0.568 | 0.519 | 0.385 | 0.341 | 0.653 | 0.524 | 0.572 | 0.439 | 0.29 | 0.723 | 0.502 | 0.624 | 0.394 | 0.309 |
| UMC-11 | 0.972 | 1.01 | 1.08 | 0.941 | 0.671 | 0.731 | 0.609 | 0.685 | 0.624 | 0.419 | 0.984 | 0.71 | 0.771 | 0.873 | 0.493 | 1.06 | 1.18 | 1.02 | 0.987 | 0.399 |
| NCI-H1651 | 0.785 | 1.08 | 0.774 | 0.667 | 0.46 | 0.626 | 0.553 | 0.734 | 0.576 | 0.286 | 0.914 | 0.775 | 0.863 | 0.796 | 0.831 | 1.2 | 0.805 | 0.982 | 0.808 | 0.249 |
